The test concerns test plant species. The test is described as follows: Post-emergent herbicidal activity test (greenhouse, foliar spray, visual growth reduction). Type of test: in vivo. The settings on record: post-emergence, 336 h, 140 g ai/ha. In short, it runs like this:
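Visual percent injury (0-100) rated 14 d after treatment, relative to nontreated and solvent-blank plants. Test plants at first or second true leaf stage received an overhead track-sprayer application at 187 L/ha. Compounds were formulated in aqueous acetone/DMSO carrier containing crop oil concentrate and X-77 surfactant.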

[1] abbreviates: ECHCG: barnyardgrass (Echinochloa crus-galli), 14 days after application, read-out: Visual Growth Reduction (%) 14 Days After Application, ECHCG.
The mark [2] stands for this setting: IPOHE: ivy-leaf morning glory (Ipomoea hederacea), 14 days after application, read-out: Visual Growth Reduction (%) 14 Days After Application, IPOHE.
Setting [3] is: KCHSC: kochia (Bassia scoparia), 14 days after application, read-out: Visual Growth Reduction (%) 14 Days After Application, KCHSC.
Where [4] appears, read: ORYSA: rice (Oryza sativa), 14 days after application, read-out: Visual Growth Reduction (%) 14 Days After Application, ORYSA.
[5] abbreviates: SETFA: giant foxtail (Setaria faberi), 14 days after application, read-out: Visual Growth Reduction (%) 14 Days After Application, SETFA.
The mark [6] stands for this setting: SORVU: grain sorghum (Sorghum vulgare), 14 days after application, read-out: Visual Growth Reduction (%) 14 Days After Application, SORVU.
Where [7] appears, read: STEME: common chickweed (Stellaria media), 14 days after application, read-out: Visual Growth Reduction (%) 14 Days After Application, STEME.
Setting [8] is: TRZAS: wheat, spring (Triticum aestivum), 14 days after application, read-out: Visual Growth Reduction (%) 14 Days After Application, TRZAS.
Where [9] appears, read: blackgrass (Alopecurus myosuroides), 14 Days After Application, read-out: Visual Growth Reduction (%) ALOMY.
[10] abbreviates: canada thistle (Cirsium arvense), 14 Days After Application, read-out: Visual Growth Reduction (%) CIRAR.
Where [11] appears, read: crabgrass (Digitaria sanguinalis), 14 Days After Application, read-out: Visual Growth Reduction (%) DIGSA.
[12] abbreviates: lambsquarters (Chenopodium album), 14 Days After Application, read-out: Visual Growth Reduction (%) CHEAL.
The mark [13] stands for this setting: redroot pigweed (Amaranthus retroflexus), 14 Days After Application, read-out: Visual Growth Reduction (%) AMARE.
The mark [14] stands for this setting: wild oat (Avena fatua), 14 Days After Application, read-out: Visual Growth Reduction (%) AVEFA.
Setting [15] is: yellow nutsedge (Cyperus esculentus), 14 Days After Application, read-out: Visual Growth Reduction (%) CYPES.

Read-outs that look alike come from different tables or passages of the source.

As to `COC(=O)c1nc(-c2cc(C)c(C(F)(F)F)cc2F)ccc1Cl` [F361, Methyl 3-chloro-6-(2-fluoro-5-methyl-4-(trifluoromethyl)phenyl)picolinate], the pest or weed control at 140 g/ha under setting [1] lay in the range of 0 to 29%; the pest or weed control at 140 g/ha under setting [2] is 75 to 84%; the pest or weed control at 140 g/ha under setting [3] was 0 to 29%; the pest or weed control at 140 g/ha under setting [4] lay within 0 to 29%; the pest or weed control at 140 g/ha under setting [5] was in the range of 0 to 29%; the pest or weed control at 140 g/ha under setting [6] fell in the range of 0 to 29%. Further, the pest or weed control at 140 g/ha fell in the range of 0 to 29% under setting [7]; 0 to 29% under setting [8]; 0 to 29% under setting [9]; 0 to 29% under setting [10]; 0 to 29% under setting [11]; 85 to 94% under setting [12]. Moreover, the pest or weed control at 140 g/ha reads like this: under setting [13], 45 to 59%; under setting [14], 0 to 29%; under setting [15], 0 to 29%.

As to `COC(=O)c1nc(-c2cc(F)c(C(F)(F)F)cc2OC)ccc1Cl` [F362, Methyl 3-chloro-6-(5-fluoro-2-methoxy-4-(trifluoromethyl)phenyl)picolinate], the pest or weed control at 140 g/ha lay within 0 to 29% under setting [1]; 95 to 100% under setting [2]; 30 to 44% under setting [3]; 0 to 29% under setting [4]; 60 to 74% under setting [5]; 85 to 94% under setting [6]. Besides, the pest or weed control at 140 g/ha under setting [7] lay within 0 to 29%; the pest or weed control at 140 g/ha under setting [8] was in the range of 0 to 29%; the pest or weed control at 140 g/ha under setting [9] lay within 0 to 29%; the pest or weed control at 140 g/ha under setting [10] lay in the range of 0 to 29%; the pest or weed control at 140 g/ha under setting [11] fell in the range of 45 to 59%; the pest or weed control at 140 g/ha under setting [12] fell in the range of 85 to 94%. Also, the pest or weed control at 140 g/ha is, setting by setting: under setting [13], 95 to 100%; under setting [14], 0 to 29%; under setting [15], 0 to 29%.

Take `COc1cc(C(F)(F)F)ccc1-c1nc(C(=O)OCc2ccccc2)c(Cl)cc1F` [F363, Benzyl 3-chloro-5-fluoro-6-(2-methoxy-4-(trifluoromethyl)phenyl)picolinate]: the pest or weed control at 140 g/ha reads like this: under setting [1], 95 to 100%; under setting [2], 95 to 100%; under setting [3], 75 to 84%; under setting [4], 30 to 44%; under setting [5], 85 to 94%; under setting [6], 95 to 100%. The pest or weed control at 140 g/ha reads like this: under setting [7], 30 to 44%; under setting [8], 75 to 84%; under setting [9], 0 to 29%; under setting [10], 85 to 94%; under setting [11], 0 to 29%; under setting [12], 95 to 100%. In addition, the pest or weed control at 140 g/ha by setting is: under setting [13], 95 to 100%; under setting [14], 85 to 94%; under setting [15], 0 to 29%.

As for `COC(=O)c1nc(-c2ccc(OS(=O)(=O)C(F)(F)F)cc2Cl)ccc1Cl` [F364, methyl 3-chloro-6-(2-chloro-4-(((trifluoromethyl)sulfonyl)oxy)phenyl)picolinate], the pest or weed control at 140 g/ha runs as follows: under setting [1], 0 to 29%; under setting [2], 85 to 94%; under setting [3], 0 to 29%; under setting [4], 0 to 29%; under setting [5], 60 to 74%; under setting [6], 85 to 94%. In addition, the pest or weed control at 140 g/ha reads like this: under setting [7], 0 to 29%; under setting [8], 0 to 29%; under setting [9], 0 to 29%; under setting [10], 60 to 74%; under setting [11], 75 to 84%; under setting [12], 75 to 84%. The pest or weed control at 140 g/ha under setting [13] is 60 to 74%, the pest or weed control at 140 g/ha under setting [14] was 0 to 29% and the pest or weed control at 140 g/ha under setting [15] lay in the range of 0 to 29%.

For `COC(=O)c1nc(-c2ccc(OC)cc2)c(F)cc1Cl` [F365, Methyl 3-chloro-5-fluoro-6-(4-methoxyphenyl) picolinate], the pest or weed control at 140 g/ha fell in the range of 0 to 29% under setting [1]; 0 to 29% under setting [2]; 0 to 29% under setting [3]; 0 to 29% under setting [4]; 0 to 29% under setting [5]; 0 to 29% under setting [6]. Moreover, the pest or weed control at 140 g/ha under setting [7] lay in the range of 0 to 29%; the pest or weed control at 140 g/ha under setting [8] was in the range of 0 to 29%; the pest or weed control at 140 g/ha under setting [9] is 0 to 29%; the pest or weed control at 140 g/ha under setting [10] was in the range of 0 to 29%; the pest or weed control at 140 g/ha under setting [11] was 0 to 29%; the pest or weed control at 140 g/ha under setting [12] lay in the range of 0 to 29%. For the same compound, the pest or weed control at 140 g/ha under setting [13] lay within 0 to 29%, the pest or weed control at 140 g/ha under setting [14] lay in the range of 0 to 29% and the pest or weed control at 140 g/ha under setting [15] lay within 0 to 29%.

In the case of `COc1cc(C(F)(F)F)ccc1-c1ncc(Cl)c(C(=O)O)n1` [F366, 5-Chloro-2-(2-methoxy-4-(trifluoromethyl)phenyl)pyrimidine-4-carboxylic acid], the pest or weed control at 140 g/ha was in the range of 75 to 84% under setting [1]; 95 to 100% under setting [2]; 0 to 29% under setting [3]; 0 to 29% under setting [4]; 75 to 84% under setting [5]; 75 to 84% under setting [6]. Also, the pest or weed control at 140 g/ha by setting is: under setting [7], 0 to 29%; under setting [8], 0 to 29%; under setting [9], 0 to 29%; under setting [10], 30 to 44%; under setting [11], 75 to 84%; under setting [12], 85 to 94%. The pest or weed control at 140 g/ha was in the range of 75 to 84% under setting [13], 0 to 29% under setting [14] and 0 to 29% under setting [15].

Regarding `COC(=O)c1nc(-c2cc(F)c3c(c2)OC(F)(F)O3)ccc1Cl` [F367, Methyl 3-chloro-6-(2,2,7-trifluorobenzo[d][1,3]dioxol-5-yl)picolinate], the pest or weed control at 140 g/ha is 0 to 29% under setting [1]; 95 to 100% under setting [2]; 0 to 29% under setting [3]; 0 to 29% under setting [4]; 0 to 29% under setting [5]; 0 to 29% under setting [6]. The pest or weed control at 140 g/ha under setting [7] lay in the range of 0 to 29%; the pest or weed control at 140 g/ha under setting [8] fell in the range of 0 to 29%; the pest or weed control at 140 g/ha under setting [9] lay in the range of 0 to 29%; the pest or weed control at 140 g/ha under setting [10] was 0 to 29%; the pest or weed control at 140 g/ha under setting [11] lay in the range of 75 to 84%; the pest or weed control at 140 g/ha under setting [12] lay within 0 to 29%. Further, the pest or weed control at 140 g/ha under setting [13] fell in the range of 0 to 29%, the pest or weed control at 140 g/ha under setting [14] was 0 to 29% and the pest or weed control at 140 g/ha under setting [15] is 0 to 29%.

Consider `O=C(O)c1nc(-c2cc(F)c3c(c2)OC(F)(F)O3)ccc1Cl` [F368, 3-Chloro-6-(2,2,7-trifluorobenzo[d][1,3]dioxol-5-yl)picolinic acid], for which the pest or weed control at 140 g/ha by setting is: under setting [1], 0 to 29%; under setting [2], 95 to 100%; under setting [3], 0 to 29%; under setting [4], 0 to 29%; under setting [5], 45 to 59%; under setting [6], 75 to 84%. In addition, the pest or weed control at 140 g/ha reads like this: under setting [7], 0 to 29%; under setting [8], 0 to 29%; under setting [9], 0 to 29%; under setting [10], 0 to 29%; under setting [11], 75 to 84%; under setting [12], 0 to 29%. Moreover, the pest or weed control at 140 g/ha by setting is: under setting [13], 0 to 29%; under setting [14], 0 to 29%; under setting [15], 0 to 29%.

Source of the values: US20230017045A1, “PYRIDINE AND PYRIMIDINE CARBOXYLATE HERBICIDES AND METHODS OF USE THEREOF” (Dow AgroSciences LLC, priority 2017, published 2023).
